# Reference: US10760110B2, “Antibiotic testing and screening system” (priority 2017, dated 2020)
# Where two headings read alike, the source gives them in different places.
# Key:
# [1] = tested on: A. baumannii KW1 strains with β-lactamase plasmids; experiment: Etest MIC of β-lactams, extended-spectrum β-lactamase, AmpC β-lactamase or carbapenemase (Table 18); type: cell-based, Acinetobacter baumannii
# Procedure: DNA fragments of the resistance genes along with their flanking regions were amplified from clinical plasmids via PCR with specific primer pairs. The resulting PCR fragments were digested and then cloned into the plasmid pYMAb5 or pYMAb5Tc. The resulting plasmids were then transformed into A. baumannii KW1 via electroporation.
# (§1) The MICs of antibiotics were determined using the Etest (Biodisk AB, Sweden) according to the manufacturer's instructions. The MICs from the Etest, which fall between standard two-fold dilutions, were rounded up to the next highest two-fold value. The MICs of ceftazidime and cefotaxime against K. pneumoniae NVT1001 harbouring the pACYC177 plasmid with blaOXA-48 were further determined using a broth microdilution test according to the recommendations of the CLSI,^25 and the results were interpreted according to the breakpoints established by the CLSI in 2017.^25 Meanwhile, due to the lack of CLSI breakpoints in 2016 and 2017, the results for cephalothin were interpreted according to the breakpoints established by the CLSI in 2015,^26 and the results for moxifloxacin were interpreted according to the breakpoints established by the EUCAST in 2017.^27
# [2] = tested on: K. pneumoniae NVT1001 strains with Sul/Dfr plasmids; experiment: Etest MIC of folate pathway inhibitors, OmpK35/36 loss, ΔramR and/or drug-resistant target enzyme (Table 15); type: cell-based, Klebsiella pneumoniae; details: for MIC: Klebsiella pneumoniae
# Procedure: DNA fragments of the resistance genes along with their flanking regions were amplified from clinical plasmids via PCR with specific primer pairs. The resulting PCR fragments were digested and then cloned into the plasmid pACYC177 or pACYC184. The resulting plasmids were then transformed into K. pneumoniae strain NVT1001 via electroporation. The recombinant bacteria were plated onto LB agar plates containing kanamycin (50 mg/L) or chloramphenicol (50 mg/L), and the presence of the cloned gene was confirmed via PCR and DNA sequencing.
# as §1
# [3] = tested on: K. pneumoniae NVT1001 and its ΔompK35/36 and/or ΔramR mutants; experiment: Etest MIC, OmpK35/36 loss and AcrAB-TolC overexpression (ΔramR) strains (Table 6); type: cell-based, Klebsiella pneumoniae; details: Klebsiella pneumoniae
# Procedure: as §1
# [4] = tested on: K. pneumoniae NVT1001 ΔramRΔompK35/36 mutant and its revertants; experiment: Etest MIC, ΔramRΔompK35/36 mutant and its revertants (Table 7); type: cell-based; details: Klebsiella pneumoniae
# Excerpt: The allelic-exchange method was used to restore the wild-type gene in the K. pneumoniae NVT1001 mutants with constructed chromosome-mediated resistance mechanisms, as described by Tsai et al.^19 Briefly, a DNA fragment of the entire wild-type gene sequence along with flanking regions was amplified from K. pneumoniae NVT1001 using PCR with specific primers. The resulting PCR fragment was digested and then cloned into pUT-KB. For homologous recombination, this plasmid was transformed into E. coli S17-1 λpir^23 via electroporation and mobilized into the K. pneumoniae NVT1001 mutant via conjugation. […] After incubation in 20 mL BHI broth for 6 hours at 37° C. in the absence of kanamycin, the fully grown cultures were spread onto LB agar plates supplemented with 10% sucrose. After the double crossover occurred, the sucrose-resistant and kanamycin-susceptible colonies were selected, and the restoration of the wild-type gene was confirmed via DNA sequencing.
# as §1
# [5] = DfrA1 on pACYC177, WT (NVT1001), read-out: MIC
# [6] = DfrA1 on pACYC177, ΔompK35/36 mutant
# [7] = DfrA1 on pACYC177, ΔompK35 mutant
# [8] = DfrA1 on pACYC177, ΔompK36 mutant
# [9] = DfrA1 on pACYC177, ΔramR mutant
# [10] = DfrA1 on pACYC177, ΔramRΔompK35/36 mutant
# [11] = DfrA1 on pACYC177, ΔramRΔompK35 mutant
# [12] = DfrA1 on pACYC177, ΔramRΔompK36 mutant
# [13] = DfrA16 on pACYC177, WT (NVT1001), read-out: MIC
# [14] = DfrA16 on pACYC177, ΔompK35/36 mutant
# [15] = DfrA16 on pACYC177, ΔompK35 mutant
# [16] = DfrA16 on pACYC177, ΔompK36 mutant
# [17] = DfrA16 on pACYC177, ΔramR mutant
# [18] = DfrA16 on pACYC177, ΔramRΔompK35/36 mutant
# [19] = DfrA16 on pACYC177, ΔramRΔompK35 mutant
# [20] = DfrA16 on pACYC177, ΔramRΔompK36 mutant
# [21] = Sul1 on pACYC177, WT (NVT1001), read-out: MIC
# [22] = Sul1 on pACYC177, ΔompK35/36 mutant
# [23] = Sul1 on pACYC177, ΔompK35 mutant
# [24] = Sul1 on pACYC177, ΔompK36 mutant
# [25] = Sul1 on pACYC177, ΔramRΔompK35/36 mutant
# [26] = Sul1 on pACYC177, ΔramRΔompK35 mutant
# [27] = Sul1 on pACYC177, ΔramRΔompK36 mutant
# [28] = Sul2 on pACYC177, WT (NVT1001), read-out: MIC
# [29] = Sul2 on pACYC177, ΔompK35/36 mutant
# [30] = Sul2 on pACYC177, ΔompK35 mutant
# [31] = Sul2 on pACYC177, ΔompK36 mutant
# [32] = Sul2 on pACYC177, ΔramRΔompK35/36 mutant
# [33] = Sul2 on pACYC177, ΔramRΔompK35 mutant
# [34] = Sul2 on pACYC177, ΔramRΔompK36 mutant
# [35] = no supplemental plasmid, WT (NVT1001), read-out: MIC
# [36] = no supplemental plasmid, ΔompK35/36 mutant
# [37] = no supplemental plasmid, ΔompK35 mutant
# [38] = no supplemental plasmid, ΔompK36 mutant
# [39] = no supplemental plasmid, ΔramR mutant
# [40] = no supplemental plasmid, ΔramRΔompK35/36 mutant
# [41] = no supplemental plasmid, ΔramRΔompK35 mutant
# [42] = no supplemental plasmid, ΔramRΔompK36 mutant
# [43] = ΔramRΔ35/36, ΔramRΔompK35/36 mutant
# [44] = ΔramRΔompK35/36::ompK35/36 revertant
# [45] = ΔramRΔompK35/36::ompK35 revertant
# [46] = ΔramRΔompK35/36::ompK36 revertant
# [47] = ΔramRΔompK35/36::ramR revertant
# [48] = ΔramRΔompK35/36::ramR::ompK35/36 revertant
# [49] = ΔramRΔompK35/36::ramR::ompK35 revertant
# [50] = ΔramRΔompK35/36::ramR::ompK36 revertant
compound,measurement,setting,value
C[C@@H](O)[C@H]1C(=O)N2C(C(=O)O)=C(S[C@@H]3CN[C@H](C(=O)N(C)C)C3)[C@H](C)[C@H]12 [MP],MIC,"[1]; KW1, no supplemental plasmid",0.5 µg/mL
same,MIC,[1]; KW1 with ADC-30 on pYMAb5,3 µg/mL
same,MIC,[1]; KW1 with CTX-M-15 on pYMAb5,2 µg/mL
same,MIC,[1]; KW1 with IMP-1 on pYMAb5,12 µg/mL
same,MIC,[1]; KW1 with NDM-1 on pYMAb5,>32 µg/mL
same,MIC,[1]; KW1 with OXA-23 on pYMAb5,>32 µg/mL
same,MIC,[1]; KW1 with OXA-58 on pYMAb5,6 µg/mL
same,MIC,[1]; KW1 with OXA-66 on pYMAb5,8 µg/mL
same,MIC,[1]; KW1 with OXA-72 on pYMAb5,>32 µg/mL
same,MIC,[1]; KW1 with VEB-3 on pYMAb5,0.5 µg/mL
same,MIC,[1]; KW1 with VIM-1 on pYMAb5,>32 µg/mL
same,MIC,[1]; KW1 with shuttle vector pYMAb5,0.5 µg/mL
COc1cc(Cc2cnc(N)nc2N)cc(OC)c1OC [Trimethoprim],MIC,[2]; [5],> 32 µg/mL
same,MIC,[2]; [6],> 32 µg/mL
same,MIC,[2]; [7],> 32 µg/mL
same,MIC,[2]; [8],> 32 µg/mL
same,MIC,[2]; [9],> 32 µg/mL
same,MIC,[2]; [10],> 32 µg/mL
same,MIC,[2]; [11],> 32 µg/mL
same,MIC,[2]; [12],> 32 µg/mL
same,MIC,[2]; [13],> 32 µg/mL
same,MIC,[2]; [14],> 32 µg/mL
same,MIC,[2]; [15],> 32 µg/mL
same,MIC,[2]; [16],> 32 µg/mL
same,MIC,[2]; [17],> 32 µg/mL
same,MIC,[2]; [18],> 32 µg/mL
same,MIC,[2]; [19],> 32 µg/mL
same,MIC,[2]; [20],> 32 µg/mL
same,MIC,[2]; [21],2 µg/mL
same,MIC,[2]; [22],4 µg/mL
same,MIC,[2]; [23],2 µg/mL
same,MIC,[2]; [24],2 µg/mL
same,MIC,"[2]; Sul1 on pACYC177, ΔramR mutant",16 µg/mL
same,MIC,[2]; [25],> 32 µg/mL
same,MIC,[2]; [26],32 µg/mL
same,MIC,[2]; [27],> 32 µg/mL
same,MIC,[2]; [28],2 µg/mL
same,MIC,[2]; [29],4 µg/mL
same,MIC,[2]; [30],4 µg/mL
same,MIC,[2]; [31],4 µg/mL
same,MIC,"[2]; Sul2 on pACYC177, ΔramR mutant",16 µg/mL
same,MIC,[2]; [32],> 32 µg/mL
same,MIC,[2]; [33],32 µg/mL
same,MIC,[2]; [34],32 µg/mL
same,MIC,[2]; [35],2 µg/mL
same,MIC,[2]; [36],2 µg/mL
same,MIC,[2]; [37],2 µg/mL
same,MIC,[2]; [38],2 µg/mL
same,MIC,[2]; [39],8 µg/mL
same,MIC,[2]; [40],> 32 µg/mL
same,MIC,[2]; [41],8 µg/mL
same,MIC,[2]; [42],16 µg/mL
same,effects on the MIC,[2]; strains with porin loss and/or Sul production,no significant (≥4-fold) effects
same,MIC,"[3]; WT, NVT1001, read-out: MIC",2 µg/mL
same,MIC,"[3]; Δ35, ΔompK35 mutant",2 µg/mL
same,MIC,"[3]; Δ35/36, ΔompK35/36 mutant",2 µg/mL
same,MIC,"[3]; Δ36, ΔompK36 mutant",2 µg/mL
same,MIC,[3]; ΔramR mutant,8 µg/mL
same,MIC,"[3]; ΔramRΔ35, ΔramRΔompK35 mutant",8 µg/mL
same,MIC,[3]; [43],> 32 µg/mL
same,MIC,"[3]; ΔramRΔ36, ΔramRΔompK36 mutant",16 µg/mL
same,MIC,[4]; [44],8 µg/mL
same,MIC,[4]; [45],8 µg/mL
same,MIC,[4]; [46],8 µg/mL
same,MIC,[4]; [47],2 µg/mL
same,MIC,[4]; [48],2 µg/mL
same,MIC,[4]; [49],2 µg/mL
same,MIC,[4]; [50],2 µg/mL
same,MIC,[4]; ΔramRΔompK35/36 mutant,> 32 µg/mL
Cc1cc(NS(=O)(=O)c2ccc(N)cc2)no1 [Sulfamethoxazole],MIC,[2]; [5],256 µg/mL
same,MIC,[2]; [6],> 1020 µg/mL
same,MIC,[2]; [7],> 1020 µg/mL
same,MIC,[2]; [8],> 1020 µg/mL
same,MIC,[2]; [9],> 1020 µg/mL
same,MIC,[2]; [10],> 1020 µg/mL
same,MIC,[2]; [11],> 1020 µg/mL
same,MIC,[2]; [12],> 1020 µg/mL
same,MIC,[2]; [13],256 µg/mL
same,MIC,[2]; [14],> 1020 µg/mL
same,MIC,[2]; [15],> 1020 µg/mL
same,MIC,[2]; [16],> 1020 µg/mL
same,MIC,[2]; [17],> 1020 µg/mL
same,MIC,[2]; [18],> 1020 µg/mL
same,MIC,[2]; [19],> 1020 µg/mL
same,MIC,[2]; [20],> 1020 µg/mL
same,MIC,[2]; [21],> 1020 µg/mL
same,MIC,[2]; [22],> 1020 µg/mL
same,MIC,[2]; [23],> 1020 µg/mL
same,MIC,[2]; [24],> 1020 µg/mL
same,MIC,"[2]; Sul1 on pACYC177, ΔramR mutant",> 1020 µg/mL
same,MIC,[2]; [25],> 1020 µg/mL
same,MIC,[2]; [26],> 1020 µg/mL
same,MIC,[2]; [27],> 1020 µg/mL
same,MIC,[2]; [28],> 1020 µg/mL
same,MIC,[2]; [29],> 1020 µg/mL
same,MIC,[2]; [30],> 1020 µg/mL
same,MIC,[2]; [31],> 1020 µg/mL
same,MIC,"[2]; Sul2 on pACYC177, ΔramR mutant",> 1020 µg/mL
same,MIC,[2]; [32],> 1020 µg/mL
same,MIC,[2]; [33],> 1020 µg/mL
same,MIC,[2]; [34],> 1020 µg/mL
same,MIC,[2]; [35],256 µg/mL
same,MIC,[2]; [36],> 1020 µg/mL
same,MIC,[2]; [37],256 µg/mL
same,MIC,[2]; [38],> 1020 µg/mL
same,MIC,[2]; [39],> 1020 µg/mL
same,MIC,[2]; [40],> 1020 µg/mL
same,MIC,[2]; [41],> 1020 µg/mL
same,MIC,[2]; [42],> 1020 µg/mL
same,MIC,"[3]; WT, NVT1001",256 µg/mL
same,MIC,"[3]; Δ35, ΔompK35 mutant",256 µg/mL
same,MIC,"[3]; Δ35/36, ΔompK35/36 mutant",> 1020 µg/mL
same,MIC,"[3]; Δ36, ΔompK36 mutant",> 1020 µg/mL
same,MIC,[3]; ΔramR mutant,> 1020 µg/mL
same,MIC,"[3]; ΔramRΔ35, ΔramRΔompK35 mutant",> 1020 µg/mL
same,MIC,[3]; [43],> 1020 µg/mL
same,MIC,"[3]; ΔramRΔ36, ΔramRΔompK36 mutant",> 1020 µg/mL
same,MIC,[4]; [44],> 1020 µg/mL
same,MIC,[4]; [45],> 1020 µg/mL
same,MIC,[4]; [46],> 1020 µg/mL
same,MIC,[4]; [47],> 1020 µg/mL
same,MIC,[4]; [48],256 µg/mL
same,MIC,[4]; [49],> 1020 µg/mL
same,MIC,[4]; [50],256 µg/mL
same,MIC,[4]; ΔramRΔompK35/36 mutant,> 1020 µg/mL
